The results in this text go back to patent US9770026B2, “Substituted pyrimidine compound and uses thereof” (Shenyang Sinochem Agrochemicals R&D Co., Ltd., priority 2012, dated 2017).

Each structure is given as a SMILES string.

Assay [1] relates to wheat powdery mildew. As to the kind of experiment: protectant activity in vivo against wheat powdery mildew.
For assay [2], the system named is corn rust. As to the kind of experiment: protectant activity in vivo against corn rust.
Assay [3] concerns Green peach aphids (Myzus Persicae Sulzer). Description: bioactivity test against green peach aphid, airbrush foliar spray. It is filed as in vivo. Particulars: death rate after 48 hrs. On the procedure:
Compounds were dissolved in mixed solvent (acetone:methanol=1:1), and diluted to required concentration with water containing 0.1% of tween 80.
Diamond back moth, armyworm, peach aphid and carmine spider mite were used as targets and the method of spraying by airbrush was used for determination of insecticidal biassays.
Method: Filter papers were put in culture dishes (Diameter=6 cm), and water was dripped on filter papers for preserving moisture. Green peach aphids (Myzus Persicae Sulzer) were maintained on cabbage. Leaves (Diameter=3 cm) of approximately 15-30 aphids were put in the culture dishes. Bioactivity tests were used the method of Airbrush Foliar Spray, pressure=10 psi (0.7 kg/cm2), spray volume=0.5 mL. The studies were conducted at […] 25±1 C in incubator cabinets with 60±5% RH. Survey the survival aphids after 48 hrs and calculate the death rates.

For assay [4], the system named is cucumber downy mildew. As to the kind of experiment: protectant activity in vivo against cucumber downy mildew. Particulars: for control effect against cucumber downy mildew (%): protectant activity.

With `FC(F)(F)c1ccc(Oc2ccc(CNc3ncnc4ccccc34)cc2)nc1` [CK31, reference compound], the pest or weed control at 6.25 µg/mL in assay [1] (Triticum aestivum, 168 h, read-out: control effect against wheat powdery mildew (%), 6.25 mg/L, protectant activity) was determined as 0%; in assay [2] (Zea mays, 168 h, read-out: control effect against corn rust (%), 6.25 mg/L, protectant activity), 0%. The pest or weed control at 25 µg/mL in assay [1] (Triticum aestivum, 168 h, read-out: control effect against wheat powdery mildew (%), 25 mg/L, protectant activity) worked out at 0%; in assay [2] (Zea mays, 168 h, read-out: control effect against corn rust (%), 25 mg/L, protectant activity), 0%. Further, the pest or weed control at 100 µg/mL in assay [1] (Triticum aestivum, 168 h, read-out: control effect against wheat powdery mildew (%), 100 mg/L, protectant activity) stood at 0%; in assay [2] (Zea mays, 168 h, read-out: control effect against corn rust (%), 100 mg/L, protectant activity), 0%. Besides, the pest or weed control at 400 µg/mL in assay [1] (Triticum aestivum, 168 h, read-out: control effect against wheat powdery mildew (%), 400 mg/L, protectant activity) stood at 0%; in assay [2] (Zea mays, 168 h, read-out: control effect against corn rust (%), 400 mg/L, protectant activity), 0%.

With `CCOC(=O)c1ccc(Oc2ccc(CCNc3ncnc(C)c3Cl)cc2)nc1` [Compound I-35], in assay [1] (400 ppm), the “protectant activity against wheat powdery mildew in vivo” value turned out to be 100%. Moreover, the “control (test results against green peach aphid)” value in assay [3] (10 ppm), in assay [3] (100 ppm) and in assay [3] (600 ppm) was 100% in each case. Further, the “protectant activity against corn rust in vivo” value in assay [2] (100 ppm) and in assay [2] (400 ppm) was 100% throughout. Moreover, the “protectant activity against cucumber downy mildew in vivo” value in assay [4] (400 ppm) came out at 100%.

Consider `Cc1ncnc(NCCc2ccc(Oc3ncc(C(F)(F)F)cc3Cl)c(Cl)c2)c1Cl` [Compound I-1414], for which the “protectant activity against wheat powdery mildew in vivo” value in assay [1] (100 ppm) and in assay [1] (400 ppm) was 100% throughout. The “control (test results against green peach aphid)” value in assay [3] (100 ppm) and in assay [3] (600 ppm) was 100% throughout.

Take `Cc1ncnc(NCCc2ccc(Oc3ncc(C(F)(F)F)cc3Cl)cc2)c1Br` [Compound I-1878]: the “control (test results against green peach aphid)” value in assay [3] (10 ppm), in assay [3] (100 ppm) and in assay [3] (600 ppm) was 100% in each case. The “protectant activity against corn rust in vivo” value in assay [2] (400 ppm) is recorded as 100%. Also, the “protectant activity against cucumber downy mildew in vivo” value in assay [4] (400 ppm) worked out at 100%.

Consider `FC(F)c1ncnc(NCCc2ccc(Oc3ncc(Cl)cc3Cl)cc2)c1Cl` [Compound I-2555], for which the “protectant activity against wheat powdery mildew in vivo” value in assay [1] (25 ppm), in assay [1] (100 ppm) and in assay [1] (400 ppm) was 100% in each case. The “control (test results against green peach aphid)” value in assay [3] (100 ppm) and in assay [3] (600 ppm) was 100% in each case. Besides, in assay [2] (400 ppm), the “protectant activity against corn rust in vivo” value is recorded as 100%. The “protectant activity against cucumber downy mildew in vivo” value in assay [4] (400 ppm) came out at 100%.

Turning to `CCc1nc(C)nc(NCCc2ccc(Oc3nc(Cl)c(Cl)cc3Cl)cc2)c1Cl` [Compound I-6790], the pest or weed control at 400 ppm in assay [1] (Triticum aestivum, 168 h, read-out: protectant activity against wheat powdery mildew in vivo, 400 ppm) worked out at 100%; in assay [2] (Zea mays, 168 h, read-out: protectant activity against corn rust in vivo, 400 ppm), 100%; in assay [4] (Cucumis sativus, 168 h, read-out: protectant activity against cucumber downy mildew in vivo, 400 ppm), 100%. In assay [3] (Myzus persicae, foliar, 48 h, 600 ppm), the pest or weed control at 600 ppm was determined as 100%. For the same compound, the pest or weed control at 25 ppm in assay [4] (Cucumis sativus, 168 h, read-out: protectant activity against cucumber downy mildew in vivo, 25 ppm) is 80 to 99%. Besides, the pest or weed control at 50 ppm in assay [4] (Cucumis sativus, 168 h, read-out: protectant activity against cucumber downy mildew in vivo, 50 ppm) was in the range of 80 to 99%. Besides, the pest or weed control at 100 ppm in assay [4] (Cucumis sativus, 168 h, read-out: protectant activity against cucumber downy mildew in vivo, 100 ppm) was 80 to 99%.

`Cc1ncnc(NCCc2ccc(Oc3cc(Cl)cc(Cl)c3)cc2)c1Cl` [II-25]: in assay [1] (400 ppm), the “protectant activity against wheat powdery mildew in vivo” value stood at 100%. In assay [3] (600 ppm), the “control (test results against green peach aphid)” value stood at 100%. Moreover, the “protectant activity against cucumber downy mildew in vivo” value in assay [4] (400 ppm) was 100%.

On to `Cc1ncnc(NCCc2ccc(Oc3c([N+](=O)[O-])cc(Cl)cc3C(F)(F)F)cc2)c1Cl` [II-202], for which, in assay [4] (400 ppm), the “protectant activity against cucumber downy mildew in vivo” value turned out to be 100%.

With `Cc1ncnc(NCCc2ccc(Oc3ccc([N+](=O)[O-])c(Cl)c3C)cc2)c1Cl` [II-236], in assay [3] (600 ppm), the “control (test results against green peach aphid)” value was 100%. The “control effect against cucumber downy mildew (%)” value (“control effect … (%)” for short) in assay [4] (25 mg/L), in assay [4] (50 mg/L), in assay [4] (100 mg/L) and in assay [4] (400 mg/L) was 100% each time. Moreover, the “protectant activity against cucumber downy mildew in vivo” value in assay [4] (25 ppm), in assay [4] (50 ppm), in assay [4] (100 ppm) and in assay [4] (400 ppm) was 100% in each case.

For `O=[N+]([O-])c1cc(Cl)ccc1Oc1ccc(CCNc2ncnc(C(F)F)c2Cl)cc1` [II-9058], in assay [1] (400 ppm), the “protectant activity against wheat powdery mildew in vivo” value was determined as 100%. The “protectant activity against cucumber downy mildew in vivo” value in assay [4] (400 ppm) turned out to be 100%.

`Cc1ncnc(NCCc2ccc(Oc3cc(Cl)ccc3Cl)nc2)c1Cl` [III-83]: in assay [1] (400 ppm), the “protectant activity against wheat powdery mildew in vivo” value is 100%. Besides, the “control (test results against green peach aphid)” value in assay [3] (600 ppm) was 100%. Moreover, in assay [2] (400 ppm), the “protectant activity against corn rust in vivo” value is given as 100%.

For `Cc1ncnc(NCCc2ccc(Oc3ccc(C(F)(F)F)cc3Cl)nc2)c1Cl` [III-121], the “protectant activity against wheat powdery mildew in vivo” value in assay [1] (100 ppm) and in assay [1] (400 ppm) was 100% in each case. The “control (test results against green peach aphid)” value in assay [3] (100 ppm) and in assay [3] (600 ppm) was 100% in each case. The “control effect … (%)” value in assay [4] (25 mg/L), in assay [4] (50 mg/L), in assay [4] (100 mg/L) and in assay [4] (400 mg/L) was 100% each time. Also, the “protectant activity against cucumber downy mildew in vivo” value in assay [4] (25 ppm), in assay [4] (50 ppm), in assay [4] (100 ppm) and in assay [4] (400 ppm) was 100% in each case.

Turning to `CCc1ncnc(NCCc2ccc(Oc3cccc(Cl)c3)nc2)c1Cl` [III-186], the “protectant activity against wheat powdery mildew in vivo” value in assay [1] (400 ppm) is on record as 100%. The “control (test results against green peach aphid)” value in assay [3] (100 ppm) and in assay [3] (600 ppm) was 100% throughout. Also, the “protectant activity against corn rust in vivo” value in assay [2] (400 ppm) was 100%.

On to `CCc1ncnc(NCCc2ccc(Oc3cc(Cl)ccc3Cl)nc2)c1Cl` [III-263], for which the “protectant activity against wheat powdery mildew in vivo” value in assay [1] (400 ppm) came to 100%. In addition, the “control (test results against green peach aphid)” value in assay [3] (600 ppm) is on record as 100%. Further, the “control effect … (%)” value in assay [4] (6.25 mg/L) is given as 70%; in assay [4] (12.5 mg/L), 98%; in assay [4] (25 mg/L), 100%; in assay [4] (50 mg/L), 100%; in assay [4] (100 mg/L), 100%; in assay [4] (400 mg/L), 100%. The “protectant activity against cucumber downy mildew in vivo” value in assay [4] (25 ppm), in assay [4] (50 ppm), in assay [4] (100 ppm) and in assay [4] (400 ppm) was 100% in each case.

For `CCc1ncnc(NCCc2ccc(Oc3ccc(Cl)cc3C)nc2)c1Cl` [III-290], the “protectant activity against cucumber downy mildew in vivo” value in assay [4] (400 ppm) is given as 100%.

Turning to `Cc1nc(Cl)c(Cl)c(NCCc2ccc(Oc3ccccc3)nc2)n1` [III-2521], the “protectant activity against corn rust in vivo” value in assay [2] (400 ppm) is recorded as 100%. In addition, the “control effect … (%)” value in assay [4] (12.5 mg/L), in assay [4] (25 mg/L), in assay [4] (50 mg/L), in assay [4] (100 mg/L) and in assay [4] (400 mg/L) was 100% each time. The “protectant activity against cucumber downy mildew in vivo” value in assay [4] (12.5 ppm), in assay [4] (25 ppm), in assay [4] (50 ppm), in assay [4] (100 ppm) and in assay [4] (400 ppm) was 100% throughout.

`Cc1nc(Cl)c(Cl)c(NCCc2ccc(Oc3cccc(Cl)c3)nc2)n1` [III-2526]: in assay [2] (400 ppm), the “protectant activity against corn rust in vivo” value is 100%. The “protectant activity against cucumber downy mildew in vivo” value in assay [4] (25 ppm), in assay [4] (50 ppm), in assay [4] (100 ppm) and in assay [4] (400 ppm) was 100% each time.

As to `Cc1nc(Cl)c(Cl)c(NCCc2ccc(Oc3cccc(C(F)(F)F)c3)nc2)n1` [III-2541], the “protectant activity against wheat powdery mildew in vivo” value in assay [1] (400 ppm) is recorded as 100%. Moreover, the “protectant activity against cucumber downy mildew in vivo” value in assay [4] (50 ppm), in assay [4] (100 ppm) and in assay [4] (400 ppm) was 100% throughout.
